Data as given in PubChem BioAssay (NCI).
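96-well plates; 48 h exposure; 5 concentrations. Endpoints by linear interpolation between flanking doses. Not reached: highest tested concentration assigned. GI50 marks 50% less growth. TGI is the concentration that stops growth completely.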

Assays:
Test in all cases: DTP human tumour cell line panel, 48 h
786-0 renal = test system: 786-0 renal
A498 renal = test system: A498 renal
A549 NSCLC = test system: A549 NSCLC
ACHN renal = test system: ACHN renal
BT-549 breast = test system: BT-549 breast
CAKI-1 renal = test system: CAKI-1 renal
CCRF-CEM leukemia = test system: CCRF-CEM leukemia
COLO 205 colon = test system: COLO 205 colon
DU-145 prostate = test system: DU-145 prostate
EKVX NSCLC = test system: EKVX NSCLC
HCC-2998 colon = test system: HCC-2998 colon
HCT-116 colon = test system: HCT-116 colon
HCT-15 colon = test system: HCT-15 colon
HL-60(TB) leukemia = test system: HL-60(TB) leukemia
HOP-62 NSCLC = test system: HOP-62 NSCLC
HT29 colon = test system: HT29 colon
IGROV1 ovarian = test system: IGROV1 ovarian
K-562 leukemia = test system: K-562 leukemia
KM12 colon = test system: KM12 colon
M14 melanoma = test system: M14 melanoma
MALME-3M melanoma = test system: MALME-3M melanoma
MCF7 breast = test system: MCF7 breast
MDA-MB-231 breast = test system: MDA-MB-231 breast
MDA-MB-435 = test system: MDA-MB-435
MDA-N = test system: MDA-N
MOLT-4 leukemia = test system: MOLT-4 leukemia
NCI-H460 lung = test system: NCI-H460 lung
NCI/ADR-RES ovarian = test system: NCI/ADR-RES ovarian
OVCAR-3 ovarian = test system: OVCAR-3 ovarian
OVCAR-5 ovarian = test system: OVCAR-5 ovarian
OVCAR-8 ovarian = test system: OVCAR-8 ovarian
PC-3 prostate = test system: PC-3 prostate
RPMI-8226 leukemia = test system: RPMI-8226 leukemia
RXF 393 renal = test system: RXF 393 renal
SF-268 CNS = test system: SF-268 CNS
SF-295 CNS = test system: SF-295 CNS
SF-539 CNS = test system: SF-539 CNS
SK-MEL-2 melanoma = test system: SK-MEL-2 melanoma
SK-MEL-28 melanoma = test system: SK-MEL-28 melanoma
SK-MEL-5 melanoma = test system: SK-MEL-5 melanoma
SK-OV-3 ovarian = test system: SK-OV-3 ovarian
SN12C renal = test system: SN12C renal
SNB-19 CNS = test system: SNB-19 CNS
SNB-75 CNS = test system: SNB-75 CNS
SR leukemia = test system: SR leukemia
SW-620 colon = test system: SW-620 colon
T-47D breast = test system: T-47D breast
TK-10 renal = test system: TK-10 renal
U251 CNS = test system: U251 CNS
UACC-257 melanoma = test system: UACC-257 melanoma
UACC-62 melanoma = test system: UACC-62 melanoma
UO-31 renal = test system: UO-31 renal
HOP-92 NSCLC = test system: HOP-92 NSCLC
LOX IMVI melanoma = test system: LOX IMVI melanoma
NCI-H226 lung = test system: NCI-H226 lung
NCI-H23 lung = test system: NCI-H23 lung
NCI-H522 lung = test system: NCI-H522 lung

`C/C=C1\C(=O)O[C@H]2C/C(C)=C/CC/C(C)=C/CC[C@@]3(C)O[C@@H]3C[C@@H]12` was tested, and the TGI (786-0 renal) was greater than 100000 nM, the TGI (A498 renal) was greater than 100000 nM and the TGI (A549 NSCLC) was greater than 100000 nM. For the same compound, the TGI (ACHN renal) was greater than 100000 nM, the TGI (BT-549 breast) was greater than 100000 nM and the TGI (CAKI-1 renal) was greater than 100000 nM. For the same compound, the TGI (CCRF-CEM leukemia) was greater than 100 µM, the TGI (COLO 205 colon) was greater than 100000 nM and the TGI (DU-145 prostate) was greater than 100 µM. For the same compound, the TGI (EKVX NSCLC) was greater than 100000 nM, the TGI (HCC-2998 colon) was greater than 100000 nM and the TGI (HCT-116 colon) was greater than 100000 nM. For the same compound, the TGI (HCT-15 colon) was greater than 100000 nM, the TGI (HL-60(TB) leukemia) was greater than 100000 nM and the TGI (HOP-62 NSCLC) was greater than 100000 nM. It also gave a TGI (HT29 colon) greater than 100000 nM, a TGI (IGROV1 ovarian) greater than 100000 nM and a TGI (K-562 leukemia) greater than 100000 nM. The TGI (KM12 colon) was greater than 100000 nM, the TGI (M14 melanoma) was greater than 100000 nM and the TGI (MALME-3M melanoma) was greater than 100000 nM. It also gave a TGI (MCF7 breast) greater than 100 µM, a TGI (MDA-MB-231 breast) greater than 100000 nM and a TGI (MDA-MB-435) greater than 100000 nM. It also gave a TGI (MDA-N) greater than 100000 nM, a TGI (MOLT-4 leukemia) greater than 100 µM and a TGI (NCI-H460 lung) greater than 100 µM. For the same compound, the TGI (NCI/ADR-RES ovarian) was greater than 100000 nM, the TGI (OVCAR-3 ovarian) was greater than 100000 nM and the TGI (OVCAR-5 ovarian) was greater than 100000 nM. It also gave a TGI (OVCAR-8 ovarian) greater than 100000 nM, a TGI (PC-3 prostate) greater than 100000 nM and a TGI (RPMI-8226 leukemia) greater than 100000 nM. It also gave a TGI (RXF 393 renal) greater than 100000 nM, a TGI (SF-268 CNS) greater than 100000 nM and a TGI (SF-295 CNS) greater than 100000 nM. It also gave a TGI (SF-539 CNS) greater than 100000 nM, a TGI (SK-MEL-2 melanoma) greater than 100000 nM and a TGI (SK-MEL-28 melanoma) greater than 100000 nM. The TGI (SK-MEL-5 melanoma) was greater than 100000 nM, the TGI (SK-OV-3 ovarian) was greater than 100000 nM and the TGI (SN12C renal) was greater than 100000 nM. It also gave a TGI (SNB-19 CNS) greater than 100000 nM, a TGI (SNB-75 CNS) greater than 100000 nM and a TGI (SR leukemia) greater than 100 µM. For the same compound, the TGI (SW-620 colon) was greater than 100000 nM, the TGI (T-47D breast) was greater than 100000 nM and the TGI (TK-10 renal) was greater than 100000 nM. It also gave a TGI (U251 CNS) greater than 100000 nM, a TGI (UACC-257 melanoma) greater than 100000 nM and a TGI (UACC-62 melanoma) greater than 100000 nM. The TGI (UO-31 renal) was greater than 100000 nM.
In the case of `CC1OC(OC2C(O)CC(OC3C(O)CC(OC4CCC5(C)C(CCC6C5CCC5(C)C(C7=CC(=O)OC7)CCC65O)C4)OC3C)OC2C)CC(O)C1O` (stereo not drawn), the GI50 (786-0 renal) is reported as less than 12.4 nM, the TGI (786-0 renal) is reported as 21.9 nM and the GI50 (A498 renal) is reported as less than 10 nM. The TGI (A498 renal) was 30.1 nM, the TGI (A549 NSCLC) was 29.5 nM and the TGI (ACHN renal) was 106 nM. For the same compound, the TGI (BT-549 breast) was 61.8 nM, the TGI (CAKI-1 renal) was 52.7 nM and the TGI (COLO 205 colon) was 142 nM. The GI50 (DU-145 prostate) was less than 12 nM, the TGI (DU-145 prostate) was less than 0.0204 µM and the TGI (EKVX NSCLC) was 80.9 nM. It also gave a TGI (HCC-2998 colon) of 584 nM, a GI50 (HCT-116 colon) of 11 nM and a TGI (HCT-116 colon) of 100 nM. It also gave a TGI (HCT-15 colon) of 86.7 nM, a GI50 (HL-60(TB) leukemia) of 45.1 nM and a TGI (HL-60(TB) leukemia) of 415 nM. It also gave a TGI (HOP-62 NSCLC) of 41.7 nM, a TGI (HOP-92 NSCLC) of 190 nM and a TGI (HT29 colon) of 123 nM. For the same compound, the TGI (IGROV1 ovarian) was 542 nM, the TGI (K-562 leukemia) was 204 nM and the TGI (KM12 colon) was 209 nM. It also gave a GI50 (LOX IMVI melanoma) of less than 12.1 nM, a TGI (LOX IMVI melanoma) of 58.7 nM and a GI50 (M14 melanoma) of 95.6 nM. It also gave a TGI (M14 melanoma) of 268 nM, a TGI (MALME-3M melanoma) of 75.6 nM and a TGI (MCF7 breast) greater than 100 µM. For the same compound, the TGI (MDA-MB-231 breast) was 786 nM, the TGI (MDA-MB-435) was 147 nM and the TGI (MDA-N) was 138 nM. For the same compound, the GI50 (MOLT-4 leukemia) was 165 nM, the TGI (NCI-H226 lung) was 174 nM and the TGI (NCI-H23 lung) was 51.7 nM. It also gave a GI50 (NCI-H460 lung) of less than 11.6 nM, a TGI (NCI-H460 lung) of less than 0.0187 µM and a TGI (NCI-H522 lung) of 22.4 nM. It also gave a TGI (NCI/ADR-RES ovarian) of 293 nM, a TGI (OVCAR-3 ovarian) of 48.5 nM and a TGI (OVCAR-5 ovarian) of 148 nM. For the same compound, the GI50 (OVCAR-8 ovarian) was less than 18.7 nM, the TGI (OVCAR-8 ovarian) was 70.8 nM and the TGI (PC-3 prostate) was 170 nM. It also gave a TGI (RPMI-8226 leukemia) of 1470 nM, a TGI (RXF 393 renal) of 78.5 nM and a TGI (SF-268 CNS) of 61.4 nM. For the same compound, the TGI (SF-295 CNS) was 99.8 nM, the TGI (SF-539 CNS) was 21.9 nM and the TGI (SK-MEL-2 melanoma) was 447 nM. For the same compound, the TGI (SK-MEL-28 melanoma) was 423 nM, the TGI (SK-MEL-5 melanoma) was 62.4 nM and the TGI (SK-OV-3 ovarian) was 143 nM. It also gave a TGI (SN12C renal) of 130 nM, a TGI (SNB-19 CNS) of 304 nM and a TGI (SNB-75 CNS) of 653 nM. It also gave a TGI (SW-620 colon) of 282 nM, a GI50 (T-47D breast) of 56 nM and a TGI (T-47D breast) of 1730 nM. For the same compound, the TGI (TK-10 renal) was 87.6 nM, the GI50 (U251 CNS) was less than 17.7 nM and the TGI (U251 CNS) was 46.7 nM. It also gave a TGI (UACC-257 melanoma) of 219 nM, a TGI (UACC-62 melanoma) of 152 nM and a TGI (UO-31 renal) of 151 nM.
